One test deals with oxCaMKII. Nature of the test: Western blot of blood samples for oxidized CaMKII. As to conditions: mice with cancer, N=1 per group. The class given is in vivo, mice. The source says:
In order to test whether the anti-oxCaMKII antiserum was suitable for detecting increased CaMKII oxidation in blood under disease conditions associated with enhanced oxidative stress, validated mouse models were utilized. […] (See FIG. 15). Western blot of blood samples and ImageJ analysis were used to quantify total and oxidized CaMKII. (See FIG. 15). […] Mice were exposed to cancer cells and treated with either saline or 2DG. Those mice that tailed to develop tumors after 60 days were labeled as controls. (See FIG. 16). Western blot of blood samples and ImageJ analysis were used to quantify total and oxidized CaMKII. (See FIG. 16). […] (See FIG. 16). Mice were divided into four groups based on the presence or absence of cancer and whether or not they received treatment. Western blot of blood samples and ImageJ analysis were used to quantify total and oxidized CaMKII. (See FIG. 18). Both cancer and varied treatments increase blood oxCaMKII in an additive manner.

The target in test [1] is T1, CaMKIIδ (Mus musculus, UniProt Q6PHZ2). Type of test: biochemical. Here is the method:
(§1) Mutant CaMKII cDNAs were generated using a QuikChange site-directed mutagenesis kit (Stratagene). CaMKIIδ (GenBank #NP_001020609) was generated using the Bac-to-Bac baculovirus system (Invitrogen) and purified on a calmodulin-agarose column. For CaMKII activity assays, purified CaMKII was pretreated with 200 μM CaCl2 and 1 μM CaM on ice for 1 minute. The protein was then exposed to ATP, H2O2, or water at the described concentrations for 10 minutes. Samples exposed to ATP or H2O2 were then treated with 10 mM EGTA for 10 minutes. CaMKII activity was measured as a function of ^32P-ATP incorporation into a synthetic substrate (syntide-2) at 30° C., as previously described (Wu e.g., 2002).
(§2) CaMKII is activated by Ca^2+/CaM, but autophosphorylation at T287 sustains catalytic activity after dissociation of Ca^2+/CaM (FIG. 1A) because the negatively charged phosphate prevents reassociation of the catalytic domain and autoinhibitory region (Hudmon and Schulman, 2002). CaMKII activity may also be enhanced by pro-oxidant conditions (Zhu e.g., 2007); it therefore was hypothesized that oxidation of the regulatory domain in the vicinity of T287 could sustain CaMKII catalytic activity by an analogous mechanism.
(§3) These mutants were exposed to H2O2 and assayed for activity in the presence of EGTA (FIG. 1C). […] While the paired methionine motif is conserved in the β, γ, and δ isoforms of CaMKII, the neuronal α isoform substitutes a cysteine residue for the first methionine of the pair (position 280 in CaMKIIα). The side chain of cysteine is also susceptible to oxidation. A M281C mutant of CaMKIIδ was generated to mimic the substitution in CaMKIIα. Additionally, CaMKIIα was generated and purified. […] To further elucidate the role of M281 and M282 in ROS-dependent activation, these sites were individually mutated. […]

For the next test, the target named is CaMKIIα (Homo sapiens, UniProt Q9UQM7). Here is the method: as §1
CaMKIIα, sequence (Q9UQM7 whole entry, canonical isoform): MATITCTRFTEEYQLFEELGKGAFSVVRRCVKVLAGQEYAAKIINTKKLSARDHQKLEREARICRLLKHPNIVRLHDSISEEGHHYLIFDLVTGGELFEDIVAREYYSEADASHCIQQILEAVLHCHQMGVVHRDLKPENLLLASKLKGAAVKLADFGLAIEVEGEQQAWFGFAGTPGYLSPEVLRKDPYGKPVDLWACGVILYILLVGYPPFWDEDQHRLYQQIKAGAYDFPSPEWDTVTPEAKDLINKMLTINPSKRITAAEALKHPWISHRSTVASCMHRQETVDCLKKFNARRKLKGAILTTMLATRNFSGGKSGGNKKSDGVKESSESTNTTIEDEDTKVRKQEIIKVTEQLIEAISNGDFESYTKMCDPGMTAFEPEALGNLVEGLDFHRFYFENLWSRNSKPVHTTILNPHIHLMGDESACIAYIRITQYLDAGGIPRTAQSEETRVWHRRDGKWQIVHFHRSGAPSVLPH
These mutants were exposed to H2O2 and assayed for activity in the presence of EGTA (FIG. 1C). […] While the paired methionine motif is conserved in the β, γ, and δ isoforms of CaMKII, the neuronal α isoform substitutes a cysteine residue for the first methionine of the pair (position 280 in CaMKIIα). The side chain of cysteine is also susceptible to oxidation. A M281C mutant of CaMKIIδ was generated to mimic the substitution in CaMKIIα. Additionally, CaMKIIα was generated and purified. […] To further elucidate the role of M281 and M282 in ROS-dependent activation, these sites were individually mutated.

The next test deals with cardiomyocytes. Nature of the test: Isolated cardiomyocyte TUNEL staining. The class given is cell-based, mouse. Here is the method:
(§4) Myocyte isolations from neonatal mouse or rat pups were modified from previously described methods (Mohler e.g., 2007). To generate the primary cardiomyocyte cultures, hearts were dissected from P1 animals and placed in 1 mL of Ham's F-10. Atrial tissue was removed and the ventricular chambers were rinsed to remove any remaining blood. Hearts were transferred into 1.5 mL of 0.05% Trypsin, 200 μM EDTA in Ham's F-10 medium (Mediatech). Hearts were minced into approximately 20 small pieces using forceps and small scissors and incubated in the Trypsin/EDTA medium at 37° C. Following 15 min, the heart pieces were mixed by a Pasteur pipette and incubated for an additional 15 min. A mixture of 200 μL of soybean trypsin inhibitor (2 mg/mL; Worthington) and 200 μL of collagenase (0.2 mg/mL; 1980 units/mg; Sigma) was incubated with the cells for 35-50 min at 37° C. The cell suspension was pelleted, resuspended in “Complete Medium” (40% DMEM, 40% Ham's F-10, 20% FCS), and plated on plastic dishes. Following five hours, the non-adhered cells (cardiomyocytes) were aspirated from the plate, pelleted, resuspended in Complete Medium, and plated on Mattek tissue culture plates (fibronectin-coated; Roche). Cardiomyocytes were washed with Ham's F-10 and Medium was replaced with “Defined Medium” to prevent the growth of fibroblasts. 100× Defined Medium consists of 100 μg/mL insulin, 500 μg/mL transferrin, 100 nM LiCl, 100 nM NaSeO4, and 10 nM thyroxine. To ensure that pure populations of cardiomyocytes were obtained, cultures were immunolabeled with alpha-actinin Ig (cardiomyocyte-specific marker). Only cultures with >90% cardiomyocytes were used in experiments. (See FIG. 12.) Lentiviral treatments (shRNA, rescue constructs) and apoptosis inducing agents (Iso, AngII) were used for 24 hours. Cells were fixed in 4% paraformaldehyde, permeabilized in 0.1% Triton X-100 and sodium citrate, and stained using In Situ cell death detection kits, TMR Red (Roche). TUNEL stain assays were interpreted as previously described (Yang e.g., 2006). Nuclei were co-stained with DAPI. Investigators were blinded to the genetic identity and treatment of the mice in all studies.
Cardiomyocytes from mice that express an inhibitory peptide against CaMKII (AC3-I, Zhang e.g., 2005) were treated with 100 nM AngII for 24 hours in parallel with isolated cardiomyocytes from WT and p47^−/− mice. […] Activity assays for caspase-3, a downstream target enzyme in the CaMKII apoptotic signaling pathway in heart, recapitulated the results from the TUNEL assay (FIG. 7A).

The next test has as its target Ca^2+/CaM/CaMKII complex (Mus musculus, UniProt Q6PHZ2). Type of test: binding.
The subject of test [2] is CaMKIIδ. The class given is biochemical. The note with it: for H2O2 (oxidation/ROS)-dependent activation of CaMKII mutant: exposed to H2O2, assayed in the presence of EGTA. Here is the method:
as §1, §2, §3

Another test deals with rat CaMKIIδ. The test can be described thus: CaMKIIδ shRNA knockdown and rescue in cultured neonatal cardiomyocytes. The class given is cell-based. As to conditions: shRNA-treated cells; for Rescue of apoptotic response to AngII: 24 hours. Here is the method:
as §4
The CaMKIIδ-specific shRNA target sequence was selected based on the algorithm of Chalk, Wahlestedt, and Sonnhammer and others (Hammond e.g., 2000; Bernstein e.g., 2001; Brummelkamp e.g., 2002). […] Sense and anti-sense sequences were created and ligated into a modified pFIV lentiviral vector (SBI). For rescue experiments, full-length rat CaMKIIδ was cloned into pCDH1-MCS1-EF1-copOFP (SBI) and completely sequenced. The resulting construct was then modified to be shRNA resistant by engineering conserved residue wobble base changes at four positions in the template (CTG[A]-GCT[C]-ACG[A]-AGA[G] (SEQ ID NO:7))→LATR to LATR. […]

Test [3] addresses T2, CaMKIIδ (Mus musculus, UniProt Q6PHZ2, T287A).
T2 construct: CaMKIIδ (GenBank #NP_001020609) was generated using the Bac-to-Bac baculovirus system; made in house; host or cells: Bac-to-Bac baculovirus system (Invitrogen)
The class given is biochemical. The note with it: in the presence of ATP. Here is the method: as §1, §2, §3

Test [4] has as its target T3, CaMKIIδ (Mus musculus, UniProt Q6PHZ2, M281V).
T3 construct: CaMKIIδ (GenBank #NP_001020609) was generated using the Bac-to-Bac baculovirus system; made in house; host or cells: Bac-to-Bac baculovirus system (Invitrogen)
The class given is biochemical. The note with it: single point mutation, H2O2. Here is the method: as §1, §2, §3

Test [5] addresses T1, CaMKIIδ. The note with it: after Ca2+/CaM binding. Here is the method:
It seemed possible that conditions capable of oxidizing methionine residues would also oxidize unprotected cysteine residues. […] In order to comprehensively test the potential role of all accessible cysteines in contributing to oxidation-dependent CaMKII activity, CaMKII activity responses to H2O2 in the presence of iodoacetic acid were measured. Iodoacetic acid is a reagent that blocks oxidation of unprotected cysteine residues (Zangerle e.g., 1992).

Here are results for 10 compounds from patent US9090701B2, “Methods of detecting oxidized calcium/calmodulin dependent protein kinase II” (University of Iowa Research Foundation, priority 2008, dated 2015).

T1 sequence (Q6PHZ2 2-499): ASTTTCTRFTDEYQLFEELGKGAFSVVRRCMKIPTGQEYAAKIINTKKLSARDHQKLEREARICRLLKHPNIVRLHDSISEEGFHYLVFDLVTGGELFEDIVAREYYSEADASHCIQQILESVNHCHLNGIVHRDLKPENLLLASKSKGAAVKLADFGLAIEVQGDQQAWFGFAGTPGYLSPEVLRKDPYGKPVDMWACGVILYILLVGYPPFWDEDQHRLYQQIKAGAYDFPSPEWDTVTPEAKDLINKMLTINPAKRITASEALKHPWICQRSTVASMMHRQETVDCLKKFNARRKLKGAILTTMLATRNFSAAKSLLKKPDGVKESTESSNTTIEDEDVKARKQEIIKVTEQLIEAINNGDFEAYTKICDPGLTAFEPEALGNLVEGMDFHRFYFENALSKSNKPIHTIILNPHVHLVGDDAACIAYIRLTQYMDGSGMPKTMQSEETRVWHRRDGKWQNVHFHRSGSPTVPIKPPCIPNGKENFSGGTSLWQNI
T2 sequence (Q6PHZ2 2-499 T287A): as the sequence (Q6PHZ2 2-499) above, with T286A counted along it
T3 sequence (Q6PHZ2 2-499 M281V): as the sequence (Q6PHZ2 2-499) above, with M280V counted along it
Description for Ca^2+/CaM/CaMKII complex: Spectra were collected at 30° C. using a Fluorolog 3 (Jobin Yvon, Horiba) spectrofluorometer. For intrinsic fluorescence shift experiments, excitation wavelength was 270 nm. Emission spectra were generated at Iran increments from 280 nm to 400 nm. Background traces were subtracted from CaMKII spectra to eliminate the contribution from intrinsic fluorescence of CaM. For fluorescence anisotropy experiments, baseline traces of 100 nM dansylated CaM in 15 mM HEPES buffer, pH 7.2 were measured at baseline and after the addition of 200 μM CaCl2 at 60 s. At 180 s, 100 nM purified CaMKII was added to the CaM solution. For some trials, CaMKII became phosphorylated by the addition of 10 mM ATP. 100 μM H2O2 or an equivalent volume of buffer was added at 250 s. Finally, addition of 10 mM EGTA at 300 s was used to remove free calcium from the solution, uncoupling CaM/CaMKII binding.

`O=CC[C@@H](O)[C@H](O)[C@H](O)CO` [2-deoxyglucose]: the “Oxidized CaMKII in blood” value in the test on oxCaMKII was “markedly increased oxidized CaMKII”.
Consider `OO` [H2O2, hydrogen peroxide], for which, at CaMKIIδ [1] (WT CaMKII), the “Dose dependence of activation of wild type CaMKII by H2O2” value is on record as “close-dependent”. The “CaMKII activation by H2O2” value on CaMKIIδ [1] (after pretreatment with Ca2+/CaM, in the presence of EGTA) is on record as “persistent CaMKII activation”. In addition, the “CaMKII activity after exposure to H2O2” value on CaMKIIδ [1] (purified CaMKII, absence of any pre-treatment) is listed as “no discernable CaMKII activity”. The “Activation of purified CaMKIIα by H2O2” value at CaMKIIα is “activated”. Besides, in the test on cardiomyocytes (AC3-I cells compared to WT or p47−/− cells), the Apoptotic effect result is “blunted by more than half”. In addition, the Apoptosis result with cardiomyocytes (p47−/− cells) is given as “caused significant apoptosis”. Besides, the CaM trapping entry on Ca^2+/CaM/CaMKII complex (CaMKII exposure to H2O2 for 10 min) is recorded as “failed to induce CaM trapping”. At Ca^2+/CaM/CaMKII complex (pretreatment with H2O2 prior to EGTA), the “Dissociation kinetics of Ca2+/CaM from autophosphorylated CaMKII” value is given as “no significant effect”.
As for “C290V: CaMKII mutant of the regulatory domain cysteine”, in the test on CaMKIIδ [2], the “Ca2+/CaM-dependent activation” value was “indistinguishable from WT CaMKII” and the “H2O2 (oxidation/ROS)-dependent activation of CaMKII mutant” value was “indistinguishable from WT CaMKII”.
As to M282V: CaMKII single point mutant M282V, the “H2O2 (oxidation/ROS)-dependent activation of CaMKII mutant” value in the test on CaMKIIδ [2] is recorded as “completely ablated”.
Regarding M281/282V, the “H2O2 (oxidation/ROS)-dependent activation of CaMKII mutant” value with CaMKIIδ [2] was “completely abolished”. In the test on rat CaMKIIδ, the “Rescue of apoptotic response to Iso” value was “rescued the apoptotic response to Iso” and the “Rescue of apoptotic response to AngII” value was “failed to rescue the apoptotic response to AngII”.
For the compound “T287A: CaMKII bearing a T287A substitution”, the “Autophosphorylation (ATP)-dependent Ca2+-independent activity” value with CaMKIIδ [3] is recorded as “did not maintain persistent Ca^2+-independent activity”. Further, in the test on CaMKIIδ [2], the “Ca2+/CaM-dependent activation” value is “normal Ca^2+/CaM-dependent activation” and the “H2O2 (oxidation/ROS)-dependent activation of CaMKII mutant” value is “activated by H2O2”.
Regarding M281V: CaMKII single point mutant M281V, the “Reduction of oxidation-dependent activation” value with CaMKIIδ [4] was 65%.
For `O=C(O)CI` [iodoacetic acid], the “H2O2 activity responses of cysteine protected CaMKIIδ” value at CaMKIIδ [1] (pretreated with 10 mM iodoacetic acid, vs CaMKIIδ without) is “equivalent H2O2 activity responses”. At CaMKIIδ [5], the “Accessibility of cysteine residues to biochemical modification” value is listed as “blocked the accessibility of cysteine residues”.
Regarding “WT CaMKII: shRNA-resistant wild type rat CaMKIIδ rescue construct expressed by lentivirus”, in the test with rat CaMKIIδ, the “Rescue of apoptotic response to Iso” value is “fully rescued” and the “Rescue of apoptotic response to AngII” value is reported as “fully rescued”.
For “M281C: M281C mutant of CaMKIIδ generated to mimic the substitution in CaMKIIα”, the “H2O2 (oxidation/ROS)-dependent activation of CaMKII mutant” value with CaMKIIδ [2] is listed as “activated by H2O2”.
